Reference: article PMC10945555, “Improving Activity of New Arylurea Agents against Multidrug-Resistant and Biofilm-Producing Staphylococcus epidermidis” (ACS Medicinal Chemistry Letters, 2024)
Values after ≈ are worked out from the molar mass of the structure shown. Read-outs that look alike come from different tables or passages of the source.

Tests used:
horse red blood cells = assay: Hemolytic activity assay
Experimental: 2.3.3 Hemolytic activity assay
The hemolytic properties of tested compound were evaluated according to previously reported procedure.6 Defibrinated horse red blood cells purchased from Thermo Fisher Scientific (Germany) were washed with PBS (3000 rpm, 10 min at 4 °C) for three times followed by PBS dilution to obtain a 8% suspension. Then, 100 μL of the resulting suspensions […]
were treated with 100 μL of tested compound at the final concentration of 200 μM, and incubated at 37 °C for 1 h. Triton X-100 (2%) and PBS were used as positive and negative controls, respectively. After centrifugation at 3000 rpm for 3 min, 100 μL of the supernatants were transferred to a 96 well microtiter plate and the hemoglobin release was determined in a SpectraMax iD3 reader (Molecular Devices) by absorption at 540 nm. […]

[1] = test system: clinical MDR Staphylococcus epidermidis isolates; assay: MIC, broth microdilution, 81 clinical MDR strains; format: cell-based; settings: Staphylococcus epidermidis
Outline: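 MICs were determined by twofold broth microdilution in cation-adjusted Mueller-Hinton II broth per EUCAST, over 50–0.1 µg/mL, in duplicate. Compounds were tested as free bases dissolved in DMSO; MIC50 and MIC90 were derived across the 81 clinical MDR S. epidermidis strains.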

[2] = test system: Staphylococcus aureus ATCC BAA-976; assay: MIC, broth microdilution, MDR/BPSA reference strain; format: cell-based; settings: ATCCBAA976; Staphylococcus aureus ATCC BAA-976; read-out: MIC MDR/BPSA
Outline: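 Compounds tested as free bases dissolved in DMSO (1 mg/mL stock); determinations done twice; linezolid as positive control.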

## O=S(=O)(NC1CCN(CCC(Oc2ccc(C(F)(F)F)cc2)c2cccs2)CC1)c1cccc(Cl)c1 (stereo not drawn) [Compound 14]
Horse red blood cells; 200 μM, 1 h, n = 3
  %hem (hemolytic activity): 0.27%
Horse red blood cells; concentrations up to 200 μM
  lysis of erythrocytes: None of them caused lysis of erythrocytes
[1]; clinical strain 1 (Table S2), read-out: MIC
  MIC: 0.1 µg/mL (≈ 0.179 µM)
[1]; clinical strain 2 (Table S2), read-out: MIC
  MIC: 0.4 µg/mL (≈ 0.715 µM)
[1]; clinical strain 3 (Table S2), read-out: MIC
  MIC: 0.8 µg/mL (≈ 1.43 µM)
[1]; clinical strain 4 (Table S2), read-out: MIC
  MIC: 1.6 µg/mL (≈ 2.86 µM)
[1]; clinical strain 5 (Table S2), read-out: MIC
  MIC: 3.12 µg/mL (≈ 5.59 µM)
[1]; clinical strain 6 (Table S2), read-out: MIC
  MIC: 0.8 µg/mL (≈ 1.43 µM)
[1]; clinical strain 7 (Table S2), read-out: MIC
  MIC: 3.12 µg/mL (≈ 5.59 µM)
[1]; clinical strain 8 (Table S2), read-out: MIC
  MIC: 1.6 µg/mL (≈ 2.86 µM)
[1]; clinical strain 9 (Table S2), read-out: MIC
  MIC: 1.6 µg/mL (≈ 2.86 µM)
[1]; clinical strain 10 (Table S2), read-out: MIC
  MIC: 3.12 µg/mL (≈ 5.59 µM)
[1]; clinical strain 11 (Table S2), read-out: MIC
  MIC: 3.12 µg/mL (≈ 5.59 µM)
[1]; clinical strain 12 (Table S2), read-out: MIC
  MIC: 6.25 µg/mL (≈ 11.2 µM)
[1]; clinical strain 13 (Table S2), read-out: MIC
  MIC: 6.25 µg/mL (≈ 11.2 µM)
[1]; clinical strain 14 (Table S2), read-out: MIC
  MIC: 6.25 µg/mL (≈ 11.2 µM)
[1]; clinical strain 15 (Table S2), read-out: MIC
  MIC: 1.6 µg/mL (≈ 2.86 µM)
[1]; clinical strain 16 (Table S2), read-out: MIC
  MIC: 1.6 µg/mL (≈ 2.86 µM)
[1]; clinical strain 17 (Table S2), read-out: MIC
  MIC: 3.12 µg/mL (≈ 5.59 µM)
[1]; clinical strain 18 (Table S2), read-out: MIC
  MIC: 3.12 µg/mL (≈ 5.59 µM)
[1]; clinical strain 19 (Table S2), read-out: MIC
  MIC: 3.12 µg/mL (≈ 5.59 µM)
[1]; clinical strain 20 (Table S2), read-out: MIC
  MIC: 1.6 µg/mL (≈ 2.86 µM)
[1]; clinical strain 21 (Table S2), read-out: MIC
  MIC: 3.12 µg/mL (≈ 5.59 µM)
[1]; clinical strain 22 (Table S2), read-out: MIC
  MIC: 6.25 µg/mL (≈ 11.2 µM)
[1]; clinical strain 23 (Table S2), read-out: MIC
  MIC: 12.5 µg/mL (≈ 22.4 µM)
[1]; clinical strain 24 (Table S2), read-out: MIC
  MIC: 6.25 µg/mL (≈ 11.2 µM)
[1]; clinical strain 25 (Table S2), read-out: MIC
  MIC: 6.25 µg/mL (≈ 11.2 µM)
[1]; clinical strain 26 (Table S2), read-out: MIC
  MIC: 6.25 µg/mL (≈ 11.2 µM)
[1]; clinical strain 27 (Table S2), read-out: MIC
  MIC: 3.12 µg/mL (≈ 5.59 µM)
[1]; clinical strain 28 (Table S2), read-out: MIC
  MIC: 12.5 µg/mL (≈ 22.4 µM)
[1]; clinical strain 29 (Table S2), read-out: MIC
  MIC: 12.5 µg/mL (≈ 22.4 µM)
[1]; clinical strain 30 (Table S2), read-out: MIC
  MIC: 12.5 µg/mL (≈ 22.4 µM)
[1]; clinical strain 31 (Table S2), read-out: MIC
  MIC: 12.5 µg/mL (≈ 22.4 µM)
[1]; clinical strain 32 (Table S2), read-out: MIC
  MIC: 6.25 µg/mL (≈ 11.2 µM)
[1]; clinical strain 33 (Table S2), read-out: MIC
  MIC: 3.12 µg/mL (≈ 5.59 µM)
[1]; clinical strain 34 (Table S2), read-out: MIC
  MIC: 12.5 µg/mL (≈ 22.4 µM)
[1]; clinical strain 35 (Table S2), read-out: MIC
  MIC: 12.5 µg/mL (≈ 22.4 µM)
[1]; clinical strain 36 (Table S2), read-out: MIC
  MIC: 50 µg/mL (≈ 89.4 µM)
[1]; clinical strain 37 (Table S2), read-out: MIC
  MIC: 12.5 µg/mL (≈ 22.4 µM)
[1]; clinical strain 38 (Table S2), read-out: MIC
  MIC: 12.5 µg/mL (≈ 22.4 µM)
[1]; clinical strain 39 (Table S2), read-out: MIC
  MIC: 12.5 µg/mL (≈ 22.4 µM)
[1]; clinical strain 40 (Table S2), read-out: MIC
  MIC: 25 µg/mL (≈ 44.7 µM)
[1]; clinical strain 41 (Table S2), read-out: MIC
  MIC: 25 µg/mL (≈ 44.7 µM)
[1]; clinical strain 42 (Table S2), read-out: MIC
  MIC: 12.5 µg/mL (≈ 22.4 µM)
[1]; clinical strain 43 (Table S2), read-out: MIC
  MIC: 25 µg/mL (≈ 44.7 µM)
[1]; clinical strain 44 (Table S2), read-out: MIC
  MIC: 50 µg/mL (≈ 89.4 µM)
[1]; clinical strain 45 (Table S2), read-out: MIC
  MIC: 25 µg/mL (≈ 44.7 µM)
[1]; clinical strain 46 (Table S2), read-out: MIC
  MIC: 50 µg/mL (≈ 89.4 µM)
[1]; clinical strain 47 (Table S2), read-out: MIC
  MIC: 25 µg/mL (≈ 44.7 µM)
[1]; clinical strain 48 (Table S2), read-out: MIC
  MIC: 3.12 µg/mL (≈ 5.59 µM)
[1]; clinical strain 49 (Table S2), read-out: MIC
  MIC: 0.1 µg/mL (≈ 0.179 µM)
[1]; clinical strain 50 (Table S2), read-out: MIC
  MIC: 50 µg/mL (≈ 89.4 µM)
[1]; clinical strain 51 (Table S2), read-out: MIC
  MIC: 50 µg/mL (≈ 89.4 µM)
[1]; clinical strain 52 (Table S2), read-out: MIC
  MIC: 3.12 µg/mL (≈ 5.59 µM)
[1]; clinical strain 53 (Table S2), read-out: MIC
  MIC: 12.5 µg/mL (≈ 22.4 µM)
[1]; clinical strain 54 (Table S2), read-out: MIC
  MIC: 12.5 µg/mL (≈ 22.4 µM)
[1]; clinical strain 55 (Table S2), read-out: MIC
  MIC: 50 µg/mL (≈ 89.4 µM)
[1]; clinical strain 56 (Table S2), read-out: MIC
  MIC: 3.12 µg/mL (≈ 5.59 µM)
[1]; clinical strain 57 (Table S2), read-out: MIC
  MIC: 12.5 µg/mL (≈ 22.4 µM)
[1]; clinical strain 58 (Table S2), read-out: MIC
  MIC: 6.25 µg/mL (≈ 11.2 µM)
[1]; clinical strain 59 (Table S2), read-out: MIC
  MIC: 50 µg/mL (≈ 89.4 µM)
[1]; clinical strain 60 (Table S2), read-out: MIC
  MIC: 3.12 µg/mL (≈ 5.59 µM)
[1]; clinical strain 61 (Table S2), read-out: MIC
  MIC: 50 µg/mL (≈ 89.4 µM)
[1]; clinical strain 62 (Table S2), read-out: MIC
  MIC: 6.25 µg/mL (≈ 11.2 µM)
[1]; clinical strain 63 (Table S2), read-out: MIC
  MIC: 0.4 µg/mL (≈ 0.715 µM)
[1]; clinical strain 64 (Table S2), read-out: MIC
  MIC: 6.25 µg/mL (≈ 11.2 µM)
[1]; clinical strain 65 (Table S2), read-out: MIC
  MIC: 6.25 µg/mL (≈ 11.2 µM)
[1]; clinical strain 66 (Table S2), read-out: MIC
  MIC: 50 µg/mL (≈ 89.4 µM)
[1]; clinical strain 67 (Table S2), read-out: MIC
  MIC: 50 µg/mL (≈ 89.4 µM)
[1]; clinical strain 68 (Table S2), read-out: MIC
  MIC: 50 µg/mL (≈ 89.4 µM)
[1]; clinical strain 69 (Table S2), read-out: MIC
  MIC: 3.12 µg/mL (≈ 5.59 µM)
[1]; clinical strain 70 (Table S2), read-out: MIC
  MIC: 50 µg/mL (≈ 89.4 µM)
[1]; clinical strain 71 (Table S2), read-out: MIC
  MIC: 50 µg/mL (≈ 89.4 µM)
[1]; clinical strain 72 (Table S2), read-out: MIC
  MIC: 3.12 µg/mL (≈ 5.59 µM)
[1]; clinical strain 73 (Table S2), read-out: MIC
  MIC: 0.8 µg/mL (≈ 1.43 µM)
[1]; clinical strain 74 (Table S2), read-out: MIC
  MIC: 50 µg/mL (≈ 89.4 µM)
[1]; clinical strain 75 (Table S2), read-out: MIC
  MIC: 6.25 µg/mL (≈ 11.2 µM)
[1]; clinical strain 76 (Table S2), read-out: MIC
  MIC: 3.12 µg/mL (≈ 5.59 µM)
[1]; clinical strain 77 (Table S2), read-out: MIC
  MIC: 6.25 µg/mL (≈ 11.2 µM)
[1]; clinical strain 78 (Table S2), read-out: MIC
  MIC: 6.25 µg/mL (≈ 11.2 µM)
[1]; clinical strain 79 (Table S2), read-out: MIC
  MIC: 6.25 µg/mL (≈ 11.2 µM)
[1]; clinical strain 80 (Table S2), read-out: MIC
  MIC: 12.5 µg/mL (≈ 22.4 µM)
[1]; clinical strain 81 (Table S2), read-out: MIC
  MIC: 6.25 µg/mL (≈ 11.2 µM)
[1]; mean of MIC values against clinical MDR-SE isolates, read-out: mean MIC
  MIC: 10 µg/mL (≈ 17.9 µM)
[1]; 81 clinical strains, concentration inhibiting growth of 50% clinical isolates
  MIC50: 6.25 µg/mL (≈ 11.2 µM)
[1]; 81 clinical strains, concentration inhibiting growth of 90% of clinical isolates
  MIC90: 50 µg/mL (≈ 89.4 µM)
[2]
  MIC: 12.5 µg/mL (≈ 22.4 µM)
